# From ChEMBL document CHEMBL1201862, “PubChem BioAssay data set” (2004)
#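 The compound was tested at five concentrations on cells cultured in 96-well plates, with a 48-hour exposure period. GI50 marks 50% less growth.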 The source made the active and inactive calls. Rule as the data show it: active = GI50 up to about 1.1 µM and inactive = higher.
# What was measured:
# Experiment in all cases: inhibition of tumour cell growth, NCI panel, 48 h
# [1] = system: NCI-H460
# [2] = system: OVCAR-4
# [3] = system: SNB-75
# [4] = system: TK-10
# [5] = system: SF-268
# [6] = system: HOP-92
# [7] = system: IGROV-1
# [8] = system: EKVX
# [9] = system: MDA-MB-231
# [10] = system: HL-60
# [11] = system: SW-620
# [12] = system: SK-MEL-5
# [13] = system: T47D
# [14] = system: CCRF-CEM
# [15] = system: UACC-257
# [16] = system: SK-MEL-2
# [17] = system: MCF7
# [18] = system: HT-29
# [19] = system: U-251
# [20] = system: ACHN
# [21] = system: SF-539
# [22] = system: HCC 2998
# [23] = system: NCI-H522
# [24] = system: K562
# [25] = system: MOLT-4
# [26] = system: OVCAR-3
# [27] = system: Hs-578T
# [28] = system: UACC-62
# [29] = system: MDA-N
# [30] = system: DU-145
# [31] = system: RXF 393
# [32] = system: SNB-19
# [33] = system: NCI-H226
# [34] = system: SR
# [35] = system: UO-31
# [36] = system: COLO 205
# [37] = system: KM12
# [38] = system: RPMI-8226
# [39] = system: M14
# [40] = system: CAKI-1
# [41] = system: SN12C
# [42] = system: NCI-H23
# [43] = system: PC-3
# [44] = system: MDA-MB-435
# [45] = system: SK-OV-3
# [46] = system: A549
# [47] = system: HOP-62
# [48] = system: SF-295
# [49] = system: LOX IMVI
# [50] = system: OVCAR-5
# [51] = system: SK-MEL-28
# [52] = system: HCT-15
smiles,measurement,setting,value
COc1nc2ccc(COc3ccc(C(=O)NC(CCC(=O)O)C(=O)O)cc3)cc2nc1OC (configuration not stated),GI50,[1],> 10 µM (inactive)
same,GI50,[2],> 10 µM (inactive)
same,GI50,[3],> 10 µM (inactive)
same,GI50,[4],> 10 µM (inactive)
same,GI50,[5],> 10 µM (inactive)
same,GI50,[6],> 10 µM (inactive)
same,GI50,[7],> 10 µM (inactive)
same,GI50,[8],> 10 µM (inactive)
same,GI50,[9],> 10 µM (inactive)
same,GI50,[10],> 10 µM (inactive)
same,GI50,[11],> 10 µM (inactive)
same,GI50,[12],> 10 µM (inactive)
same,GI50,[13],> 10 µM (inactive)
same,GI50,[14],> 10 µM (inactive)
same,GI50,[15],> 10 µM (inactive)
same,GI50,[16],> 10 µM (inactive)
same,GI50,[17],> 10 µM (inactive)
same,GI50,[18],> 10 µM (inactive)
same,GI50,[19],> 10 µM (inactive)
same,GI50,[20],> 10 µM (inactive)
same,GI50,[21],> 10 µM (inactive)
same,GI50,[22],> 10 µM (inactive)
same,GI50,[23],> 10 µM (inactive)
same,GI50,[24],> 10 µM (inactive)
same,GI50,[25],> 10 µM (inactive)
same,GI50,[26],> 10 µM (inactive)
same,GI50,[27],> 10 µM (inactive)
same,GI50,[28],> 10 µM (inactive)
same,GI50,[29],> 10 µM (inactive)
same,GI50,[30],> 10 µM (inactive)
same,GI50,[31],> 10 µM (inactive)
same,GI50,[32],> 10 µM (inactive)
same,GI50,[33],> 10 µM (inactive)
same,GI50,[34],> 10 µM (inactive)
same,GI50,[35],> 10 µM (inactive)
same,GI50,[36],> 10 µM (inactive)
same,GI50,[37],> 10 µM (inactive)
same,GI50,[38],> 10 µM (inactive)
same,GI50,[39],> 10 µM (inactive)
same,GI50,[40],> 10 µM (inactive)
same,GI50,[41],> 10 µM (inactive)
same,GI50,[42],> 10 µM (inactive)
same,GI50,[43],> 10 µM (inactive)
same,GI50,[44],> 10 µM (inactive)
same,GI50,[45],> 10 µM (inactive)
same,GI50,[46],> 10 µM (inactive)
same,GI50,[47],> 10 µM (inactive)
same,GI50,[48],> 10 µM (inactive)
same,GI50,[49],> 10 µM (inactive)
same,GI50,[50],> 10 µM (inactive)
same,GI50,[51],> 10 µM (inactive)
same,GI50,[52],> 10 µM
